Results from patent US20090099169A1, “Benzofuran Compounds As EP1 Receptor Antagonists” (GLAXO GROUP LIMITED, priority 2006, published 2009).
Structures can show the parent of a compound that is named as a salt.

What follows are compounds tested against T1, human EP1 receptor (Homo sapiens, UniProt P34995) (assay: Binding assay for the human prostanoid EP1 receptor (radioligand competition)). Conditions: CHO-K1 membranes; [3H]-PGE2 for Examples 1-17, 19, 33, 34, 60 and 61, 3-{2-[5-Bromo-2-(2,4-difluorobenzyloxy)-phenyl]-5-methyl-pyrrol-1-yl}-6-[3H3-methoxy]methoxy-benzoic acid for the remaining; averages of a number of experiments; read-out: pIC50 value (binding assay for the human prostanoid EP1 receptor) (converted).
T1 sequence (P34995 1-402): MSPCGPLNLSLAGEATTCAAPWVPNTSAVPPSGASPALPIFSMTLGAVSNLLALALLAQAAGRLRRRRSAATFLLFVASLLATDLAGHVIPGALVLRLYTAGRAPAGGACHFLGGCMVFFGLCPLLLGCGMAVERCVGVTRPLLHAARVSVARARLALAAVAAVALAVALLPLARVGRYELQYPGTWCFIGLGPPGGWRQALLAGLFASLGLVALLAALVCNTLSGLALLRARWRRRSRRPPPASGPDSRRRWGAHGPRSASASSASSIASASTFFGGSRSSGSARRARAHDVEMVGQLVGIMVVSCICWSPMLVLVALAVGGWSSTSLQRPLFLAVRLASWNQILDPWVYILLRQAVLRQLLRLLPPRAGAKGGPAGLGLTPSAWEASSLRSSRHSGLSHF
Parameters: expressed in transfected cells; host or cells: CHO-K1 (membranes)
Procedure, shortened: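 Membranes from CHO-K1 cells stably expressing human EP1, in pH 6 MES buffer with 10 mM MgCl2. Competition with [3H]-PGE2 (3 nM final) for 30 min at 30 °C, or alternatively with a tritiated benzoic-acid ligand (0.2 nM final) for 45 min at 37 °C; filtration and scintillation counting, IC50 by non-linear fitting.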

Structure (SMILES)	IC50 [nM]
CC(C)c1cc2cc(Cl)cc(Cc3ccc(C(=O)O)o3)c2o1 [Example 1, 5-{[5-Chloro-2-(1-methylethyl)-1-benzofuran-7-yl]methyl}-2-furancarboxylic Acid]	≤ 100
CCNCc1ccc(NC(=O)c2cc(C)n(Cc3cc(Cl)cc4cc(C(C)C)oc34)n2)cc1 [Example 15, 1-{[5-Chloro-2-(1-methylethyl)-1-benzofuran-7-yl]methyl}-N-{4-[(ethylamino)methyl]phenyl}-5-methyl-1H-pyrazole-3-carboxamide hydrochloride]	≤ 100
Cc1cc(C(=O)O)nn1Cc1cc(Cl)cc2cc(C(C)C)oc12 [Example 3, 1-{[5-Chloro-2-(1-methylethyl)-1-benzofuran-7-yl]methyl}-5-methyl-1H-pyrazole-3-carboxylic Acid]	≤ 100

The remaining lines, values ahead:

IC50 [nM]	Structure (SMILES)
≤ 100	Cc1cc(C(=O)NN2CCOCC2)nn1Cc1cc(Cl)cc2cc(C3CCCCC3)oc12 [Example 28, 1-[(5-Chloro-2-cyclohexyl-1-benzofuran-7-yl)methyl]-5-methyl-N-4-morpholinyl-1H-pyrazole-3-carboxamide]
≤ 100	Cc1cc(C(=O)Nc2ccc(CN3CCC(O)CC3)cc2)nn1Cc1cc(Cl)cc2cc(C(C)C)oc12 [Example 16, 1-{[5-Chloro-2-(1-methylethyl)-1-benzofuran-7-yl]methyl}-N-{4-[(4-hydroxy-1-piperidinyl)methyl]phenyl}-5-methyl-1H-pyrazole-3-carboxamide hydrochloride]
≤ 100	Cc1cc(C(=O)Nc2ccc(CN3CC[C@@H](O)C3)cc2)nn1Cc1cc(Cl)cc2cc(C(C)C)oc12 [Example 17, 1-{[5-Chloro-2-(1-methylethyl)-1-benzofuran-7-yl]methyl}-N-(4-{[(3R)-3-hydroxy-1-pyrrolidinyl]methyl}phenyl)-5-methyl-1H-pyrazole-3-carboxamide hydrochloride]
